Data set [1] is described as follows: Storage stability of the trimethylstannyl precursor. The class given is physicochemical. Particulars: −8 °C for several months.
In data set [2] the target is T1, rat A3 adenosine receptor (Rattus norvegicus, UniProt P28647).
T1 sequence (P28647 1-320): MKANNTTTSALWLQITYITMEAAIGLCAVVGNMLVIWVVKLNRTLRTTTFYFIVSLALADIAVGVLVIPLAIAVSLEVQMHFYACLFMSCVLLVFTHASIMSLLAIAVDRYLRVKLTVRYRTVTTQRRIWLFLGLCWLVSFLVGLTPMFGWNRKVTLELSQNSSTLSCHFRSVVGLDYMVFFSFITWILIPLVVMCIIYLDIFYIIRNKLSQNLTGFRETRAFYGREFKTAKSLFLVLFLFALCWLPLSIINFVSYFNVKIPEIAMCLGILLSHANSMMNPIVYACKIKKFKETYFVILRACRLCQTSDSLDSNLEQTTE
Type of data set: binding. The following applies: vs [125I]MRS1898 0.1 nM, rA3AR in CHO membranes, mean ± SEM.

For another data set, the target named is rA3AR. Particulars: cited from earlier work.
The next data set concerns the target hA3AR. Particulars: cited from earlier work.
A further data set relates to mouse A3AR. The following applies: cited from earlier work.
The next data set addresses rA1AR. Particulars: cited from earlier work.

These results are taken from article PMC2721771 (Purinergic Signalling, 2008).

Where two headings read alike, the source gives them in different places.

The term Ki denotes a dissociation constant, usually derived from enzyme kinetics or from competition with a known ligand.

Regarding `CNC(=O)[C@]12C[C@@H]1[C@@H](n1cnc3c(NCc4cccc([125I])c4)nc(Cl)nc31)[C@H](O)[C@@H]2O` [Compound 10], the stability upon storage entry in data set [1] is given as “stable”.
Turning to `CCCOC(=O)c1c(-c2ccccc2)nc(CC)c(C(=O)SCC)c1CCC` [MRS1523, 5-propyl-2-ethyl-4-propyl-3-(ethylsulfanylcarbonyl)-6-phenylpyridine-5-carboxylate], the Ki in data set [2] stood at 518 ± 236 nM.
As for `CNc1ncnc2c1ncn2[C@@H]1O[C@H](CO)[C@@H](O)[C@H]1O` [N^6-methyladenosine], the Ki was 6390 nM on rA3AR (rA3AR) and 9.3 nM at hA3AR.
Take `CCCCC#Cc1nc(NC)c2ncn([C@@H]3O[C@H](CO)[C@@H](O)[C@H]3O)c2n1` [[^3H]HEMADO, 2-hexyn-1-yl-N^6-methyladenosine]: the “effect on the rA3AR” value with rA3AR (rA3AR) was “no effect”. Besides, the Kd at hA3AR is 1.1 nM.
Take `CCCn1cc2c(nc(NC(=O)Nc3ccc(OC)cc3)n3nc(-c4ccco4)nc23)n1` [[^3H]MRE 3008F20, 5-[[(4-methoxyphenyl)amino]carbonyl]amino-8-propyl-2-(2-furyl)-pyrazolo[4,3-e]1,2,4-triazolo[1,5-c]pyrimidine]: the “binding to the rA3AR” value with rA3AR (rA3AR) is given as “do not bind effectively”. Also, in the data set on mouse A3AR, the “binding to the mouse A3AR” value is “do not bind effectively”.
Turning to `CCNC(=O)[C@H]1O[C@@H](n2cnc3c(N)ncnc32)[C@H](O)[C@@H]1O` [[^3H]NECA, 5′-N-ethylcarboxamidoadenosine], the “binding affinity at the rA3AR” value with rA3AR (rA3AR) is reported as “weak”.
`CC[C@@H]1CN2C(=O)N(C)c3nc(-c4ccccc4)[nH]c3C2=N1` [[^3H]PSB-11, (R)-4-methyl-8-ethyl-2-phenyl-imidazo[2,1-i]purin-5-one]: the “binding to the rA3AR” value in the data set with rA3AR (rA3AR) was “do not bind effectively”. For the same compound, the “binding to the mouse A3AR” value in the data set with mouse A3AR was “do not bind effectively”.
`CNC(=O)[C@H]1O[C@@H](n2cnc3c(NCc4ccc(N)c(I)c4)ncnc32)[C@H](O)[C@@H]1O` [[^125I]I-AB-MECA, N^6-(4-amino-3-iodobenzyl)-5′-N-methylcarboxamidoadenosine]: the Kd at rA3AR (rat A3AR) is about 1 nM; at rA3AR (read-out: affinity for rA3AR, radioligand affinity, A3), 1.48 nM; at rA1AR (read-out: affinity for rA1AR, radioligand affinity, A1) it was 3.42 nM.
`Nc1ccc(CCNc2ncnc3c2ncn3[C@@H]2O[C@H](CO)[C@@H](O)[C@H]2O)cc1I` [[^125I]I-APNEA, N^6-(4-amino-3-iodophenylethyl)-adenosine]: the Kd is 15 nM at rA3AR (rA3AR) and 1.32 nM at rA1AR (rA1AR).
